# Paper PMC4710522, “A Novel Triazolopyridine-Based Spleen Tyrosine Kinase Inhibitor That Arrests Joint Inflammation” (PLoS ONE, 2016)
# “And” between values parts separate entries of the source, which are not always exact repeats. Equal values may be shown once.
# How the values were obtained:
# Assay in all cases: SelectScreen kinase assay
# Format in all cases: biochemical
# Tyk2_h = Tyk2_h (Homo sapiens, UniProt P29597)
# How it was run: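 Kinase activity measured by Z'-Lyte or Adapta protocols. Single-point testing used 3 µM compound with ATP at the enzyme's KM, or at 10 or 100 µM as indicated. Values given as % control versus DMSO-only wells (100%).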
# IKBKE_h = biological target: T1, IKBKE_h (Homo sapiens, UniProt Q14164); details: KM ATP, read-out: % control
# T1 construct: purchased Life Technologies (Invitrogen) SelectScreen, Z'-LYTE / Adapta
# How it was run: (§1)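 Single-point inhibition at 3 µM compound. ATP: KM, 10 µM or 100 µM per enzyme as indicated. Output = % control (DMSO = 100%).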
# CK1-delta_h = biological target: T2, CK1-delta_h (Homo sapiens, UniProt P48730); details: KM ATP, read-out: % control
# T2 construct: purchased Life Technologies (Invitrogen) SelectScreen, Z'-LYTE / Adapta
# How it was run: as §1
# NEK4_h = biological target: T3, NEK4_h (Homo sapiens, UniProt P51957); details: KM ATP, read-out: % control
# T3 construct: purchased Life Technologies (Invitrogen) SelectScreen, Z'-LYTE / Adapta
# How it was run: as §1
# Rsk3_h = biological target: T4, Rsk3_h (Homo sapiens, UniProt Q15349); details: KM ATP, read-out: % control
# T4 construct: purchased Life Technologies (Invitrogen) SelectScreen, Z'-LYTE / Adapta
# How it was run: as §1
# DCAMKL2_h = biological target: T5, DCAMKL2_h (Homo sapiens, UniProt Q8N568); details: KM ATP, read-out: % control
# T5 construct: purchased Life Technologies (Invitrogen) SelectScreen, Z'-LYTE / Adapta
# How it was run: as §1
# PAK1_h = biological target: T6, PAK1_h (Homo sapiens, UniProt Q13153); details: KM ATP, read-out: % control
# T6 construct: purchased Life Technologies (Invitrogen) SelectScreen, Z'-LYTE / Adapta
# How it was run: as §1
# CK2_h = biological target: T7, CK2_h (Homo sapiens, UniProt P68400); details: KM ATP, read-out: % control
# T7 construct: purchased Life Technologies (Invitrogen) SelectScreen, Z'-LYTE / Adapta
# How it was run: as §1
# NEK2_h = biological target: T8, NEK2_h (Homo sapiens, UniProt P51955); details: KM ATP, read-out: % control
# T8 construct: purchased Life Technologies (Invitrogen) SelectScreen, Z'-LYTE / Adapta
# How it was run: as §1
# MAPK3_h = biological target: T9, MAPK3_h (Homo sapiens, UniProt P27361); details: KM ATP, read-out: % control
# T9 construct: purchased Life Technologies (Invitrogen) SelectScreen, Z'-LYTE / Adapta
# How it was run: as §1
# CK1-epsilon_h = biological target: T10, CK1-epsilon_h (Homo sapiens, UniProt P49674); details: KM ATP, read-out: % control
# T10 construct: purchased Life Technologies (Invitrogen) SelectScreen, Z'-LYTE / Adapta
# How it was run: as §1
# EphA8_h = biological target: T11, EphA8_h (Homo sapiens, UniProt P29322); details: KM ATP, read-out: % control
# T11 construct: purchased Life Technologies (Invitrogen) SelectScreen, Z'-LYTE / Adapta
# How it was run: as §1
# LYN-A_h = LYN-A_h (Homo sapiens, UniProt P07948)
# How it was run: as §1
# Ron_h = biological target: T12, Ron_h (Homo sapiens, UniProt Q04912); details: KM ATP, read-out: % control
# T12 construct: purchased Life Technologies (Invitrogen) SelectScreen, Z'-LYTE / Adapta
# How it was run: as §1
# CDK5_p25_h = biological target: T13, CDK5_p25_h (Homo sapiens, UniProt Q00535); details: KM ATP, read-out: % control
# T13 construct: purchased Life Technologies (Invitrogen) SelectScreen, Z'-LYTE / Adapta
# How it was run: as §1
# Abl_E255K_h = biological target: T14, Abl_E255K_h (Homo sapiens, UniProt P00519, E255K); details: KM ATP, read-out: % control
# T14 construct: purchased Life Technologies (Invitrogen) SelectScreen, Z'-LYTE / Adapta
# How it was run: as §1
# LRRK2_h = biological target: T15, LRRK2_h (Homo sapiens, UniProt Q5S007); details: KM ATP, read-out: % control
# T15 construct: purchased Life Technologies (Invitrogen) SelectScreen, Z'-LYTE / Adapta
# How it was run: as §1
# Pim-1_h = biological target: T16, Pim-1_h (Homo sapiens, UniProt P11309); details: KM ATP, read-out: % control
# T16 construct: purchased Life Technologies (Invitrogen) SelectScreen, Z'-LYTE / Adapta
# How it was run: as §1
# Met_M1250T_h = biological target: T17, Met_M1250T_h (Homo sapiens, UniProt P08581, M1250T); details: KM ATP, read-out: % control
# T17 construct: purchased Life Technologies (Invitrogen) SelectScreen, Z'-LYTE / Adapta
# How it was run: as §1
# PKB-alpha_h = biological target: T18, PKB-alpha_h (Homo sapiens, UniProt P31749); details: KM ATP, read-out: % control
# T18 construct: purchased Life Technologies (Invitrogen) SelectScreen, Z'-LYTE / Adapta
# How it was run: as §1
# AMPK_A2_B1_G1_h = biological target: T19, AMPK_A2_B1_G1_h (Homo sapiens, UniProt P54646); details: KM ATP, read-out: % control
# T19 construct: purchased Life Technologies (Invitrogen) SelectScreen, Z'-LYTE / Adapta
# How it was run: as §1
# mTOR_h = biological target: T20, mTOR_h (Homo sapiens, UniProt P42345); details: KM ATP, read-out: % control
# T20 construct: purchased Life Technologies (Invitrogen) SelectScreen, Z'-LYTE / Adapta
# How it was run: as §1
# Aurora-B_h = Aurora-B_h (Homo sapiens, UniProt Q96GD4)
# How it was run: as §1
# BRAF = biological target: T21, BRAF (Homo sapiens, UniProt P15056); details: 100 µM ATP, read-out: % control
# T21 construct: purchased Life Technologies (Invitrogen) SelectScreen, Z'-LYTE / Adapta
# How it was run: as §1
# PAK6_h = biological target: T22, PAK6_h (Homo sapiens, UniProt Q9NQU5); details: KM ATP, read-out: % control
# T22 construct: purchased Life Technologies (Invitrogen) SelectScreen, Z'-LYTE / Adapta
# How it was run: as §1
# TSSK1_h = biological target: T23, TSSK1_h (Homo sapiens, UniProt Q9BXA7); details: KM ATP, read-out: % control
# T23 construct: purchased Life Technologies (Invitrogen) SelectScreen, Z'-LYTE / Adapta
# How it was run: as §1
# Fgr_h = biological target: T24, Fgr_h (Homo sapiens, UniProt P09769); details: KM ATP, read-out: % control
# T24 construct: purchased Life Technologies (Invitrogen) SelectScreen, Z'-LYTE / Adapta
# How it was run: as §1
# FGFR2_h = biological target: T25, FGFR2_h (Homo sapiens, UniProt P21802); details: KM ATP, read-out: % control
# T25 construct: purchased Life Technologies (Invitrogen) SelectScreen, Z'-LYTE / Adapta
# How it was run: as §1
# CaMKIV_h = biological target: T26, CaMKIV_h (Homo sapiens, UniProt Q16566); details: KM ATP, read-out: % control
# T26 construct: purchased Life Technologies (Invitrogen) SelectScreen, Z'-LYTE / Adapta
# How it was run: as §1
# PRK1_h = biological target: T27, PRK1_h (Homo sapiens, UniProt Q16512); details: KM ATP, read-out: % control
# T27 construct: purchased Life Technologies (Invitrogen) SelectScreen, Z'-LYTE / Adapta
# How it was run: as §1
# JNK2-alpha2_h = biological target: T28, JNK2-alpha2_h (Homo sapiens, UniProt P45984); details: 100 µM ATP, read-out: % control
# T28 construct: purchased Life Technologies (Invitrogen) SelectScreen, Z'-LYTE / Adapta
# How it was run: as §1
# Flt3_h = Flt3_h (Homo sapiens, UniProt P36888)
# BTK_h = biological target: T29, BTK_h (Homo sapiens, UniProt Q06187); details: KM ATP, read-out: % control
# T29 construct: purchased Life Technologies (Invitrogen) SelectScreen, Z'-LYTE / Adapta
# How it was run: as §1
# [1] = 3 µM, KM ATP, read-out: % control
# [2] = 10-point dose-response, commercial vendor
# Flt3_h, sequence (P36888 27-993): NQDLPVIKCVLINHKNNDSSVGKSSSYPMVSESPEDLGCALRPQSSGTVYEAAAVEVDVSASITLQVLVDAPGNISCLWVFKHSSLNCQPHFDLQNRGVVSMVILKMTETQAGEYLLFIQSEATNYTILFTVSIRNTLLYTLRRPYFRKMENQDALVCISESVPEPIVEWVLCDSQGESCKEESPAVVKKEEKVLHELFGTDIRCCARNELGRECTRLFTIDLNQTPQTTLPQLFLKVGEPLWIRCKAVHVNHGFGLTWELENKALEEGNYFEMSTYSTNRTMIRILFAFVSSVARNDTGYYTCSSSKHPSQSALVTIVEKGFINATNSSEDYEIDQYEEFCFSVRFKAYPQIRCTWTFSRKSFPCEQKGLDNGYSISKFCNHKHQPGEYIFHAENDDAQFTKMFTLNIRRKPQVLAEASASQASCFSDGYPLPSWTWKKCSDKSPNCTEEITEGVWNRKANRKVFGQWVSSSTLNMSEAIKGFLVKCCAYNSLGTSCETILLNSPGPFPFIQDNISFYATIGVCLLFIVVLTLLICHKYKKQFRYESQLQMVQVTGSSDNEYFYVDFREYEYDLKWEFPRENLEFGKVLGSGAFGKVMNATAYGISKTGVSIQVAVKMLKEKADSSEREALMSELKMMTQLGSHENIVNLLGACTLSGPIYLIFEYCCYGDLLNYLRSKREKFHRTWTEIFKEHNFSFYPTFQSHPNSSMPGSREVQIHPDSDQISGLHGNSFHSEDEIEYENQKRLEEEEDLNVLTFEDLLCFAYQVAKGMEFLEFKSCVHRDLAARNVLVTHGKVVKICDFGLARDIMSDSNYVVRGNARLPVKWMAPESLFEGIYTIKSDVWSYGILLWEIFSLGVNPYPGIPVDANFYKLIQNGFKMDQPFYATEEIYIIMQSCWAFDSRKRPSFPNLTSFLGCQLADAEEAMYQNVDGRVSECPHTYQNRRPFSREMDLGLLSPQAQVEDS
# Tyk2_h, sequence (P29597 whole entry): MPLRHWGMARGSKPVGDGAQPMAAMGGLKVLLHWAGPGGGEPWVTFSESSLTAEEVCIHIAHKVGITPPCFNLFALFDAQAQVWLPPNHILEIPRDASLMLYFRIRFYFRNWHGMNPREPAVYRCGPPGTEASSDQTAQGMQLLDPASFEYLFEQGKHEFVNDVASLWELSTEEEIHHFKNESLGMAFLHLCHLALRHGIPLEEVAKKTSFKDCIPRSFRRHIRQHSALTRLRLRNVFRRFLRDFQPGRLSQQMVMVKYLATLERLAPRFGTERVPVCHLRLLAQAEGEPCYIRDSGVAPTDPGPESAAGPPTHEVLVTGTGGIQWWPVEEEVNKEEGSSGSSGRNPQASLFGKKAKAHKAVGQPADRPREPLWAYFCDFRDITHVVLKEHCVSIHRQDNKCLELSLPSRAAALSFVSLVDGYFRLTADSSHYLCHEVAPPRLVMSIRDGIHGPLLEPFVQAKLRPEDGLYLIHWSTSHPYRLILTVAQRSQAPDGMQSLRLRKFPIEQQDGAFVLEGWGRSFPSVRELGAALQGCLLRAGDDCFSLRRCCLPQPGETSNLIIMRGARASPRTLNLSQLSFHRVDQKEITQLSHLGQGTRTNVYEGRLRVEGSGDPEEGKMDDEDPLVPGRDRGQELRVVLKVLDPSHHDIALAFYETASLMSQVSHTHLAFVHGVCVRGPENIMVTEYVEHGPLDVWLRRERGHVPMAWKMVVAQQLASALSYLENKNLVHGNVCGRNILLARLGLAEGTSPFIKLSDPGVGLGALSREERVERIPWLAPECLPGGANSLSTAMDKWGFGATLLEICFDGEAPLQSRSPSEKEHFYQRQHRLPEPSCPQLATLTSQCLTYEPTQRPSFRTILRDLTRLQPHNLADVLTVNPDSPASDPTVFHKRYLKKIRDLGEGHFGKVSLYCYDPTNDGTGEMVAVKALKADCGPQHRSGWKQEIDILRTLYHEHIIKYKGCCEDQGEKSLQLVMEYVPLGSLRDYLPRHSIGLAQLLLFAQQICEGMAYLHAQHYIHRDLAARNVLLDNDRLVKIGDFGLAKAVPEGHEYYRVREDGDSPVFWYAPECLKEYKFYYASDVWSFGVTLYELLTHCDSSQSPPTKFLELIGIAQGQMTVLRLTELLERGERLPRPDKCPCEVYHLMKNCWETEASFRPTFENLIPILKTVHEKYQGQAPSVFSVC
# Aurora-B_h, sequence (Q96GD4 whole entry): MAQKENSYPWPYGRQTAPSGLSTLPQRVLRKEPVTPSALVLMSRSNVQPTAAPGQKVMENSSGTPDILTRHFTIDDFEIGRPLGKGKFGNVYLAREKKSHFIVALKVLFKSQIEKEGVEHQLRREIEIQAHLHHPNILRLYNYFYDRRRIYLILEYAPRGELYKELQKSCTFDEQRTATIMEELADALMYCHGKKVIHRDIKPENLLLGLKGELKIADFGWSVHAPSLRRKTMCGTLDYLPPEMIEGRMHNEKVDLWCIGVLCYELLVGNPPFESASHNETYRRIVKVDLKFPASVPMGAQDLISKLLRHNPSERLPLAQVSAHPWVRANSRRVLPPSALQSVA
# LYN-A_h, sequence (P07948 whole entry): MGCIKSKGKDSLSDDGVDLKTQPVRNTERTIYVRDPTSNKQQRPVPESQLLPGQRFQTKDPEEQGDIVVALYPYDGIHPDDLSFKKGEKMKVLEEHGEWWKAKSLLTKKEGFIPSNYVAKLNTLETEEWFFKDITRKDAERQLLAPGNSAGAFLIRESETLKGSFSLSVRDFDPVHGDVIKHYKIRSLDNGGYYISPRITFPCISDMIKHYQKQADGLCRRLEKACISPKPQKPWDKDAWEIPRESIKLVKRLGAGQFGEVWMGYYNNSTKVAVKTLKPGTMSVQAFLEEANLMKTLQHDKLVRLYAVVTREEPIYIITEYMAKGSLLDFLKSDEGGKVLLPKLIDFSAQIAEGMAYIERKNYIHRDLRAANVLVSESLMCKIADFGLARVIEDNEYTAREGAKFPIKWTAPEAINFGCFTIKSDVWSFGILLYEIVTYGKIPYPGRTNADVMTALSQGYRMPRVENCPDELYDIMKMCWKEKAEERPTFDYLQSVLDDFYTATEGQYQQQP
# T11 sequence (P29322 28-1005): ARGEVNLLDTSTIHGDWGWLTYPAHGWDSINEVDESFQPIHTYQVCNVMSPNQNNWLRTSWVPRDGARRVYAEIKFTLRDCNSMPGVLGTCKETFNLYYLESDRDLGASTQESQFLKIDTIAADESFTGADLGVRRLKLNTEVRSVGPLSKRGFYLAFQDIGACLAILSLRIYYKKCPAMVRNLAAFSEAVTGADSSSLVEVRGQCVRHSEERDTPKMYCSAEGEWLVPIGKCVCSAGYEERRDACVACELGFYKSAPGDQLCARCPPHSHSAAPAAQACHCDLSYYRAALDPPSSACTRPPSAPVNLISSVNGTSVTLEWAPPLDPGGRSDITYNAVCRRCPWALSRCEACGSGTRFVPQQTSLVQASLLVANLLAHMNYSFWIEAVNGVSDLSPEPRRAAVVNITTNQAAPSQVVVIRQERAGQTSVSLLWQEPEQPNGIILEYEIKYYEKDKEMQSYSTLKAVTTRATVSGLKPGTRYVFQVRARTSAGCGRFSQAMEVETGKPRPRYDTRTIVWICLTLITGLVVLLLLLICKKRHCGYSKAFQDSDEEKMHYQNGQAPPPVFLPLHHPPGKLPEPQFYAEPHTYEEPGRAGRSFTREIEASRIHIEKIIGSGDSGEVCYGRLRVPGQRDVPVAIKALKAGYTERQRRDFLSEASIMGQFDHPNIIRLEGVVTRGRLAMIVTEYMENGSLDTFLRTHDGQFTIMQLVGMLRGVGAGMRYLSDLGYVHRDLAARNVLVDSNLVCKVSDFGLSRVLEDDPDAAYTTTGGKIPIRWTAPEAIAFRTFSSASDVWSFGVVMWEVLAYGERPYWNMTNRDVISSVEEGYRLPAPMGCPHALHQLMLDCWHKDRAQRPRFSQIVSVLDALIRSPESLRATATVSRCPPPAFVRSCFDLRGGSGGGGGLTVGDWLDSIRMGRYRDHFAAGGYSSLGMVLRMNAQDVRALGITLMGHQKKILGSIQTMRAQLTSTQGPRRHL
# T28 sequence (P45984 whole entry): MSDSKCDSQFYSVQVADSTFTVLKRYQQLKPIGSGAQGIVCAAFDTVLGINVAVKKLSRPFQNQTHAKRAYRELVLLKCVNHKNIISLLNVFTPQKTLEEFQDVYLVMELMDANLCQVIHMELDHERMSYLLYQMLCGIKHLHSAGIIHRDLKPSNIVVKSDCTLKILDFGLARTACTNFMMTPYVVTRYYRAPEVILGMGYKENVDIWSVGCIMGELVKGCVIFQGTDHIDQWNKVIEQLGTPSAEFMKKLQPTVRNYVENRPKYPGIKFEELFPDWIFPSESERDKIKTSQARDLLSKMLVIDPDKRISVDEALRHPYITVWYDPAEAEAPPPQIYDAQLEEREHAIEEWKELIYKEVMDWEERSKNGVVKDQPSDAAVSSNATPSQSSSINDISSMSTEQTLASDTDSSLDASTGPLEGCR
# T2 sequence (P48730 whole entry): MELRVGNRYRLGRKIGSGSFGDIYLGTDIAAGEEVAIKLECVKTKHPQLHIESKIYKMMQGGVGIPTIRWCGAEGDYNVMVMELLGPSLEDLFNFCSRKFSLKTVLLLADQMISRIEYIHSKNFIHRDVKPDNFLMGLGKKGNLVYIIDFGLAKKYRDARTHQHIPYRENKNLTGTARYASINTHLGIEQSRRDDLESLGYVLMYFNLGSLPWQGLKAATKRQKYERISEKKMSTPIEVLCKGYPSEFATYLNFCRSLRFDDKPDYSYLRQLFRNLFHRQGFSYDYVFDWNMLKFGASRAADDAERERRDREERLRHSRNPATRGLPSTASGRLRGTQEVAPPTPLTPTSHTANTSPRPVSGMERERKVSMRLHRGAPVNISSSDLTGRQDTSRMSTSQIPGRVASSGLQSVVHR
smiles,measurement,setting,value
"c1cc(CC2CCOCC2)n2nc(Nc3ccc4c(NC5CCOCC5)n[nH]c4c3)nc2c1 [CC-509, [3-(2H-3,4,5,6-tetrahydropyran-4-ylamino)(1H-indazol-6-yl)][5-(2H-3,4,5,6-tetrahydropyran-4-ylmethyl)(2H-1,2,4-triazolo[1,5-a]pyridin-2-yl)]amine]",remaining activity at 3 µM,Tyk2_h; [1],3%
same,IC50,Tyk2_h; [2],110 nM and 112 nM
same,remaining activity at 3 µM,IKBKE_h,67%
same,remaining activity at 3 µM,CK1-delta_h,88%
same,remaining activity at 3 µM,NEK4_h,78%
same,remaining activity at 3 µM,Rsk3_h,33%
same,remaining activity at 3 µM,DCAMKL2_h,98%
same,remaining activity at 3 µM,PAK1_h,94%
same,remaining activity at 3 µM,CK2_h,94%
same,remaining activity at 3 µM,NEK2_h,101%
same,remaining activity at 3 µM,MAPK3_h,90%
same,remaining activity at 3 µM,CK1-epsilon_h,89%
same,remaining activity at 3 µM,EphA8_h,91%
same,remaining activity at 3 µM,LYN-A_h; [1],54%
same,IC50,LYN-A_h; [2],3580 nM
same,remaining activity at 3 µM,Ron_h,74%
same,remaining activity at 3 µM,CDK5_p25_h,82%
same,remaining activity at 3 µM,Abl_E255K_h,26%
same,remaining activity at 3 µM,LRRK2_h,3%
same,remaining activity at 3 µM,Pim-1_h,101%
same,remaining activity at 3 µM,Met_M1250T_h,74%
same,remaining activity at 3 µM,PKB-alpha_h,100%
same,remaining activity at 3 µM,AMPK_A2_B1_G1_h,63%
same,remaining activity at 3 µM,mTOR_h,92%
same,remaining activity at 3 µM,Aurora-B_h; [1],14%
same,IC50,Aurora-B_h; [2],410 nM and 409 nM
same,remaining activity at 3 µM,BRAF,83%
same,remaining activity at 3 µM,PAK6_h,91%
same,remaining activity at 3 µM,TSSK1_h,62%
same,remaining activity at 3 µM,Fgr_h,21%
same,remaining activity at 3 µM,FGFR2_h,46%
same,remaining activity at 3 µM,CaMKIV_h,100%
same,remaining activity at 3 µM,PRK1_h,60%
same,remaining activity at 3 µM,JNK2-alpha2_h,88%
same,remaining activity at 3 µM,Flt3_h; [1],6%
same,IC50,Flt3_h; [2],140 nM and 143 nM
same,remaining activity at 3 µM,BTK_h,72%
